# Measurements: patent US20240398772A1, “OXASPIRO DERIVATIVE, AND PREPARATION METHOD THEREFOR AND USE THEREOF” (SHUJING BIOPHARMA CO., LTD, priority 2021, published 2024)
# pEC50: −log10 of the molar value.
# What was measured:
# MOR beta-arrestin = target: T1, MOR beta-arrestin (Homo sapiens, UniProt P35372); assay: MOR beta-arrestin agonist test (PathHunter, U2OS/OPRM1 cell line); format: cell-based; conditions: Human Mu opioid β-arrestin U2OS/OPRM1 cell line; for Emax: maximal effect of DAMGO is 100%, read-out: Emax for activating beta-arrestin signaling pathway; for pEC50: read-out: EC50 for activating beta-arrestin signaling pathway
# T1 construct: expressed in transfected cells; host or cells: MOR beta-arrestin cell strain (U2OS/OPRM1 PathHunter per the earlier reading), kept under Hygromycin B and G418 selection
# Description: • Cell complete medium: MEM+10% FBS+1% PS+250 μg/mL Hygromycin B+500 μg/mL G418 +1×GlutaMAX • Cell inoculation medium: MEM+10% FBS+1% PS • Experimental buffer: 1×DPBS+0.1% BSA • Detection reagent: Galacton Star:Emerald II:PathHunter cell assay buffer=1:5:19
# • i) Compound samples were dissolved in DMSO to a stock concentration of 10 mM; • ii) A sample dilution sequence on a 384-well LDV plate was prepared, wherein the first concentration point of the sample was 10 mM (FAC=30 μM), and the sample was serially diluted 3.162-fold to obtain a total of 11 concentration points; • iii) The sample dilution sequence and HPE and ZPE were transferred to a compound plate (PE #6008590) using an Echo machine, with each well 90 nL transferred.
# • i) The MOR beta-arrestin cell strain was cultured in a cell complete medium at 37° C. with 5% CO2 to a confluence of 70-90%; • ii) the cells were digested and resuspended in the cell inoculation medium, and 20 μL of the MOR beta-arrestin cell suspension was added to each well of an assay plate (Corning #3570) at 7500 cells/well and incubated in an incubator at 37° C. with 5% CO2 for 24 h; • iii) 30 μL of an experimental buffer was added to a compound plate (PE #6008590), and the plate was centrifuged at 1000 rpm for 5 min; • iv) after 24 h, the assay plate was taken out, the medium was removed from the plate, and then 20 μL of the compound was transferred from each corresponding well of the compound plate to the assay plate with Bravo; • v) the assay plate was centrifuged at 500 rpm for 30 s and then placed into an incubator for incubation at 37° C. with 5% CO2 for 90 min; • vi) 10 μL of the beta-arrestin detection reagent was added to each well of the assay plate; • vii) after 1 h of incubation at room temperature in the dark, the plate was read on Envision.
# The experimental data of the percent activation rate and concentrations of 11 points were fitted using XLFit to a parameter nonlinear logic
# Use formula to calculate the EC50 value of the compound, and the results are shown in Table 7 (maximal effect of DAMGO is 100%).
# MOR = target: T2, MOR (Homo sapiens, UniProt P35372); assay: Agonist test on MOR, cAMP level (CHO-K1/OP3 cells, cAMP assay kit); format: cell-based; conditions: for pEC50: forskolin-stimulated cAMP, read-out: EC50 agonizing MOR receptor to affect cAMP level; for Emax: maximal effect of DAMGO is 100%, read-out: Emax agonizing MOR receptor to affect cAMP level
# T2 construct: expressed in transfected cells; host or cells: CHO-K1/OP3 (name from the earlier reading)
# Description: 5×stimulation buffer was diluted to 1× with ddH2O, an appropriate amount of 500 mM IBMX (generally, the IBMX stock solution was prepared to be 500 mM, namely 1000×) was added to enable the final concentration of the IBMX to be 0.5 mM, and the mixture was mixed well for later use (after the IBMX was added, that precipitation occurred was normal, and the precipitate was dissolved by well mixing). It must be prepared right before use.
# 1.3.1.2 IBMX was dissolved with DMSO to prepare a 500 mM stock solution, which was aliquoted into 20 μL/tube and cryopreserved at −80° C. to avoid repetition of freezing and thawing.
# 1.3.1.3 Forskolin was dissolved with DMSO to prepare a 10 mM stock solution, which was aliquoted into 20 μL/tube and cryopreserved at −20° C. for later use.
# The CAMP standard substance in the kit returned to room temperature, and an equivalent amount of the experimental buffer was added according to the volume marked on the bottle label. The mixture was vortexed for mixing, aliquoted according to 50 μL/tube, and cryopreserved at −20° C. for later use.
# 5 mL ddH2O was added to a bottle of cAMP-d2 and a bottle of anti-cAMP-cryptate lyophilized powder, respectively, and the mixture was mixed well by gently turning the mixture upside down, aliquoted according to 125, 62.5, and 30 μL, and the like, and cryopreserved in the dark at −80° C.
# 1.3.2.1 Positive compound DAMGO and the test compound were serially diluted 4-fold to obtain 10 concentrations with Bravo using experimental buffer in a compound plate (Greiner-781280) at a starting concentration of 2 μM (from DMSO stock solution diluted with experimental buffer) and 20 μM (from DMSO stock solution diluted with experimental buffer), respectively.
# 1.3.2.2 Cells cryopreserved were thawed in a water bath at 37° C., the cell suspension was added to a centrifuge tube containing 10 mL of HBSS buffer, and the mixture was centrifuged at 750 rpm for 5 min. The supernatant was discarded, the pellet was resuspended in an appropriate amount of experimental buffer, and 20 μL of the pellet was counted using a cell counter. An appropriate amount of the cell suspension was diluted to 0.4×10^6 cells/mL, and 5 μL of the cell suspension was added to each well of a cell plate (the cell density was 2000 cells/well) and centrifuged at 1000 rpm for 1 min. 5 μL of the diluted compound was transferred to a cell plate (PerkinElmer-6008280) with Bravo, 5 μL of 2 μM DAMGO (the final concentration was 1 μM) was transferred to positive control wells, and an equal volume of experimental buffer was transferred to negative control wells, and the cell plate was centrifuged at 1000 rpm for 1 min. The cell plate was sealed and incubated at room temperature for 15 min. Forskolin was diluted to 0.2 mM with DMSO, 25.1 nL of which was transferred to a cell plate with Tecan-D300e, and the plate was centrifuged at 1000 rpm for 1 min, sealed, and incubated at room temperature for 45 min.
# The final concentration of the initial point was 712 nM.
# 1.3.2.4 Preparation of detection reagent: an appropriate amount of a cAMP-d2 stock solution and an anti-cAMP-cryptate stock solution was diluted with a lysis buffer according to the ratio of 1:20, the two solutions were then mixed well by turning the solutions upside down according to the ratio of 1:1, and vortexing was prohibited. 10 μL of the prepared detection reagent was added to a cell plate and centrifuged at 1000 rpm for 1 min. The cell plate was incubated at room temperature for 1 h in the dark. After the cell plate was centrifuged at 1000 rpm for 1 min, the plate was read using Envision. Excitation light at 340 nm, emission light at 620 nm and 665 nm.
# The formula for calculating the compound activation rate in the agonist test: […]
# [1] = tested on: pain threshold of a mouse; assay: Mouse thermal radiation tail-flick method; format: in vivo, ICR mice; conditions: for Maximum analgesic percentage (% MPE): ICR mice, intragastric 10 mg/kg, Mean ± SEM, n = 9-10
# Description: • Intragastric administration at a dose of 10 mg/kg;
# ICR mice (normal grade, weighed 25-35 g, purchased from Shanghai Slac Laboratory Animal Co., Ltd.) were first mounted in a special plastic cylinder, their tails were exposed and allowed to droop naturally, and the measurements were made after the animals were calm. The radiation heat source could be an 8.75 mm projection lamp (32 W, adjustable). A light beam with the diameter of about 4 mm was emitted after being focused by a lens, which irradiated the skin at the junction of the middle third and the lower third of the tail (the light source and the skin at the tail must be closely attached); an electronic timer connected with the light source in parallel was used to synchronously record the irradiation duration, that is, when the irradiation started, a stopwatch was automatically started at the same time. When the tail of the animal obviously evaded, the timing was automatically stopped. The measured time interval was the tail flick latency. Mice with tail flick latency of 2-6 seconds were screened to participate in a grouping administration experiment. […] After a dose of a drug was administered to the mice, the pain threshold of the mice was measured at different times.
# After a dose of a drug was administered to the mice, the pain threshold of the mice was measured at 0.5 h, 1 h, 2 h, and 3 h (effect view of the analgesic effect is shown in FIG. 1). The formula for calculating the maximum analgesic percentage (% MPE) after administration was as follows: % MPE=(post-administration pain threshold−pre-administration pain threshold)/(15−pre-administration pain threshold)×100%.
# T1 sequence (P35372 whole entry): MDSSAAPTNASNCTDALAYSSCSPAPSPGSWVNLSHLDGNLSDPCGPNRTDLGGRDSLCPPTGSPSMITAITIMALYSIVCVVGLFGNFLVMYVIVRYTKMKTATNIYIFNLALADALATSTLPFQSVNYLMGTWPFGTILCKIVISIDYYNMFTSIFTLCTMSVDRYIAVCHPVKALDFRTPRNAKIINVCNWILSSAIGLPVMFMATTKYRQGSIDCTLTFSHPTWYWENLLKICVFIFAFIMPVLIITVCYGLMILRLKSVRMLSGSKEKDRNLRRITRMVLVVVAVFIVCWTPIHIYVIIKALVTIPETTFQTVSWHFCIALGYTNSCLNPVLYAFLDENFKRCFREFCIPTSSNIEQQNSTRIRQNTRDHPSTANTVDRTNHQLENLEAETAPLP
# T2 sequence (P35372 whole entry): as above
Structure (SMILES),Emax (MOR beta-arrestin),pEC50 (MOR beta-arrestin),pEC50 (MOR),Emax (MOR),Maximum analgesic percentage (% MPE) ([1]; 0.5 h after administration),Maximum analgesic percentage (% MPE) ([1]; 1 h after administration),Maximum analgesic percentage (% MPE) ([1]; 2 h after administration),Maximum analgesic percentage (% MPE) ([1]; 3 h after administration),"Maintenance of the analgesic effect compared with oxycodone ([1]; mouse tail flick, 0.5-3 h after administration)","Drug effect compared with oxycodone ([1]; mouse tail flick, same dose (10 mg/kg intragastric))"
"Fc1ccc(C2(CCNC3Cc4cccc(Br)c4C3)CCOC3(CCOCC3)C2)nc1 (stereo not drawn) [Compound 10, 4-bromo-N-(2-(4-(5-fluoropyridin-2-yl)-1,9-dioxaspiro[5.5]undecan-4-yl)ethyl)-2,3-dihydro-1H-inden-2-amine]",4.5%,5.32,8.55,80.9%,,,,,,
"c1ccc(C2(CCNC3CCc4ccccc43)CCOC3(CCOCC3)C2)nc1 (stereo not drawn) [Compound 15, N-(2-(4-(pyridin-2-yl)-1,9-dioxaspiro[5.5]undecan-4-yl)ethyl)-2,3-dihydro-1H-inden-1-amine]",7.2%,5.75,7.51,96.9%,,,,,,
"Fc1ccc([C@]2(CCNC3Cc4ccccc4C3)CCOC3(CCOCC3)C2)nc1 [Compound 8-1, (R)—N-(2-(4-(5-fluoropyridin-2-yl)-1,9-dioxaspiro[5.5]undecan-4-yl)ethyl)-2,3-dihydro-1H-inden-2-amine]",3%,< 4.52,8.39,92.8%,80.64 ± 9.27 %,85.69 ± 5.95 %,69.94 ± 10.43 %,87.16 ± 6.80 %,maintained for a longer period of time,better drug effect than oxycodone
"Fc1ccc(C2(CCNC3Cc4ccccc4C3)CCOC3(CCOCC3)C2)nc1 (stereo not drawn) [Compound 8, N-(2-(4-(5-fluoropyridin-2-yl)-1,9-dioxaspiro[5.5]undecan-4-yl)ethyl)-2,3-dihydro-1H-inden-2-amine]",2.1%,6.44,8.06,72%,,,,,,
"Cc1c(Cl)cccc1CNCCC1(c2ccc(F)cn2)CCOC2(CCOCC2)C1 (stereo not drawn) [Compound 12, N-(3-chloro-2-methylbenzyl)-2-(4-(5-fluoropyridin-2-yl)-1,9-dioxaspiro[5.5]undecan-4-yl)ethan-1-amine]",6.3%,< 4.52,8.12,89.8%,,,,,,
"Fc1ccc([C@]2(CCNCc3cccc(Cl)c3Cl)CCOC3(CCOCC3)C2)nc1 [Compound 13-1, (R)—N-(2,3-dichlorobenzyl)-2-(4-(5-fluoropyridin-2-yl)-1,9-dioxaspiro[5.5]undecan-4-yl)ethan-1-amine]",4.2%,< 4.52,7.73,78.6%,,,,,,
